Source: patent US10501481B2, “Heterocyclic compounds and their use in preventing or treating bacterial infections” (priority 2015, dated 2019)

Tests used:
[1] = target: T1, TEM-1 (Escherichia coli, UniProt P62593); experiment: β-lactamase inhibitory activity, nitrocefin hydrolysis; assay type: biochemical; conditions: class (A); 30 min pre-incubation; nitrocefin 200 μM
T1 construct: made in house; host or cells: E. coli
Procedure: (§1) Enzyme activity was monitored by spectrophotometric measurement of nitrocefin (NCF-TOKU-E, N005) hydrolysis at 485 nm, at room temperature and in assay buffer A: 100 mM Phosphate pH7, 2% glycerol and 0.1 mg/mL Bovine serum albumin (Sigma, B4287). […] To a transparent polystyrene plate (Corning, 3628) were added in each well 5 μL DMSO or inhibitor dilutions in DMSO and 80 μL enzyme in buffer A. Plates were immediately read at 485 nm in a microplate spectrophotometer (BioTek, PowerWave HT) to enable background subtraction. After 30 min of pre-incubation at room temperature, 15 μL of NCF (200 μM final) were finally added in each well. Final enzyme concentrations were 0.1 nM (TEM-1), 0.075 nM (SHV-1), 0.4 nM (CTX-M-15), 1 nM (KPC-2), 0.2 nM (P99 AmpC), 0.2 nM (CMY-37), 0.4 nM (AmpC P. aeruginosa), 0.2 nM (OXA-1), 1.2 nM (OXA-11), 0.4 nM (OXA-15) and 0.3 nM (OXA-48). After 20 min incubation at room temperature, plates were once again read at 485 nm. Enzyme activity was obtained by subtracting the final signal by the background, and was converted to enzyme inhibition using non inhibited wells. IC50 curves were fitted to a classical Langmuir equilibrium model with Hill slope using XLFIT (IDBS).

[2] = target: T2, SHV-1 (Klebsiella pneumoniae, UniProt P0AD64); experiment: as above; assay type: biochemical
T2 construct: made in house; host or cells: E. coli
Procedure: as §1

[3] = target: T3, CTX-M-15 (Escherichia coli, UniProt Q9EXV5); experiment: as above; assay type: biochemical
T3 construct: made in house; host or cells: E. coli
Procedure: as §1

[4] = target: T4, KPC-2 (Klebsiella pneumoniae, UniProt Q9F663); experiment: as above; assay type: biochemical
T4 construct: made in house; host or cells: E. coli
Procedure: as §1

[5] = target: T5, P99 AmpC (Enterobacter cloacae, UniProt P05364); experiment: as above; assay type: biochemical; conditions: class (C); 30 min pre-incubation; nitrocefin 200 μM
T5 construct: made in house; host or cells: E. coli
Procedure: as §1

[6] = target: AmpC P. aeruginosa (Pseudomonas aeruginosa, UniProt P24735); experiment: biochemical
Procedure: Enzyme activity was monitored by spectrophotometric measurement of nitrocefin (NCF-TOKU-E, N005) hydrolysis at 485 nm, at room temperature and in assay buffer A: 100 mM Phosphate pH7, 2% glycerol and 0.1 mg/mL Bovine serum albumin (Sigma, B4287). Enzymes were cloned in E. coli expression vector, expressed and purified in house using classical procedures. To a transparent polystyrene plate (Corning, 3628) were added in each well 5 μL DMSO or inhibitor dilutions in DMSO and 80 μL enzyme in buffer A. Plates were immediately read at 485 nm in a microplate spectrophotometer (BioTek, PowerWave HT) to enable background subtraction. After 30 min of pre-incubation at room temperature, 15 μL of NCF (200 μM final) were finally added in each well. Final enzyme concentrations were 0.1 nM (TEM-1), 0.075 nM (SHV-1), 0.4 nM (CTX-M-15), 1 nM (KPC-2), 0.2 nM (P99 AmpC), 0.2 nM (CMY-37), 0.4 nM (AmpC P. aeruginosa), 0.2 nM (OXA-1), 1.2 nM (OXA-11), 0.4 nM (OXA-15) and 0.3 nM (OXA-48). After 20 min incubation at room temperature, plates were once again read at 485 nm. Enzyme activity was obtained by subtracting the final signal by the background, and was converted to enzyme inhibition using non inhibited wells. IC50 curves were fitted to a classical Langmuir equilibrium model with Hill slope using XLFIT (IDBS).

[7] = target: T6, OXA-11 (Pseudomonas aeruginosa, UniProt Q06778); experiment: β-lactamase inhibitory activity, nitrocefin hydrolysis; assay type: biochemical
T6 construct: made in house; host or cells: E. coli
Procedure: as §1

[8] = target: T7, OXA-15 (Pseudomonas aeruginosa, UniProt Q51574); experiment: as above; assay type: biochemical
T7 construct: made in house; host or cells: E. coli
Procedure: as §1

[9] = target: T8, OXA-48 (Klebsiella pneumoniae, UniProt Q6XEC0); experiment: as above; assay type: biochemical
T8 construct: made in house; host or cells: E. coli
Procedure: as §1

[10] = test system: K. pneumoniae BAA-1898 (TEM-1, SHV-11, SHV-12, KPC-2); experiment: microbe, parasite or virus in culture; assay type: cell-based; conditions: for MIC: Klebsiella pneumoniae, BAA1898, read-out: MIC compounds of the invention alone; for MIC of CAZ in combination with compound at 4 μg/mL: strain BAA-1898, compound fixed at 4 μg/mL
[11] = test system: P. aeruginosa CIP105250 (OXA-15); experiment: MIC broth microdilution, compounds alone; conditions: Pseudomonas aeruginosa, CIP105250, read-out: MIC compounds of the invention alone
[12] = test system: E. coli UFR61O (TEM-1, KPC-2); experiment: MIC broth microdilution, alone and synergy with ceftazidime; conditions: for MIC of CAZ in combination with compound at 4 μg/mL: strain UFR61O, compound fixed at 4 μg/mL; for MIC: Escherichia coli, read-out: MIC compounds of the invention alone
[13] = test system: K. pneumoniae 160143 (TEM-1, SHV-1, CTX-M-15, KPC-2, OXA-1); experiment: as above; conditions: for MIC of CAZ in combination with compound at 4 μg/mL: strain 160143, compound fixed at 4 μg/mL; for MIC: Klebsiella pneumoniae, read-out: MIC compounds of the invention alone
[14] = test system: E. cloacae P99 (AmpC); experiment: as above; conditions: for MIC: Enterobacter cloacae, read-out: MIC compounds of the invention alone; for MIC of CAZ in combination with compound at 4 μg/mL: strain P99, compound fixed at 4 μg/mL
[15] = test system: K. pneumoniae UFR77 (CMY-2); experiment: as above; conditions: for MIC: Klebsiella pneumoniae, read-out: MIC compounds of the invention alone; for MIC of CAZ in combination with compound at 4 μg/mL: strain UFR77, compound fixed at 4 μg/mL
[16] = test system: E. coli UFR74 (SHV-1, DHA-1); experiment: as above; conditions: for MIC of CAZ in combination with compound at 4 μg/mL: strain UFR74, compound fixed at 4 μg/mL; for MIC: Escherichia coli, read-out: MIC compounds of the invention alone
[17] = test system: K. oxytoca UFR21 (TEM-1, CTX-M-15, OXA-48); experiment: as above; conditions: for MIC: Klebsiella oxytoca, read-out: MIC compounds of the invention alone; for MIC of CAZ in combination with compound at 4 μg/mL: strain UFR21, compound fixed at 4 μg/mL
[18] = test system: K. pneumoniae 6299 (TEM-1, SHV-11, OXA-163); experiment: as above; conditions: for MIC: Klebsiella pneumoniae, read-out: MIC compounds of the invention alone; for MIC of CAZ in combination with compound at 4 μg/mL: strain 6299, compound fixed at 4 μg/mL
[19] = test system: E. coli RGN238 (OXA-1); experiment: as above; conditions: for MIC: Escherichia coli, read-out: MIC compounds of the invention alone; for MIC of CAZ in combination with compound at 4 μg/mL: strain RGN238, compound fixed at 4 μg/mL
[20] = test system: E. coli 190317 (TEM-1, SHV-12, CTX-M-15, OXA-1); experiment: as above; conditions: for MIC of CAZ in combination with compound at 4 μg/mL: strain 190317, compound fixed at 4 μg/mL
[21] = test system: E. cloacae UFR38 (CTX-M-15, NDM-1); experiment: as above; conditions: for MIC: Enterobacter cloacae, read-out: MIC compounds of the invention alone; for MIC of CAZ in combination with compound at 4 μg/mL: strain UFR38, compound fixed at 4 μg/mL
[22] = test system: C. murliniae 210102 (VIM-4); experiment: as above; conditions: for MIC: read-out: MIC compounds of the invention alone; for MIC of CAZ in combination with compound at 4 μg/mL: strain 210102, compound fixed at 4 μg/mL
[23] = test system: P. aeruginosa CIP107051 (TEM-24); experiment: as above; conditions: for MIC: Pseudomonas aeruginosa, CIP107051, read-out: MIC compounds of the invention alone; for MIC of CAZ in combination with compound at 4 μg/mL: strain CIP107051, compound fixed at 4 μg/mL

T7 sequence (Q51574 22-275): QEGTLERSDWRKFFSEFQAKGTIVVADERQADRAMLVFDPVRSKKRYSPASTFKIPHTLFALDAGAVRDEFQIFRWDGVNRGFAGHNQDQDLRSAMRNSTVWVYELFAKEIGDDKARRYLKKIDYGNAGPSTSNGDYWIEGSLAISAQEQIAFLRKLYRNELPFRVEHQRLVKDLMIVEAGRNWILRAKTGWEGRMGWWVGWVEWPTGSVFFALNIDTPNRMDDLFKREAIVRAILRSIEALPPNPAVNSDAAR
T1 sequence (P62593 24-286 limits assumed): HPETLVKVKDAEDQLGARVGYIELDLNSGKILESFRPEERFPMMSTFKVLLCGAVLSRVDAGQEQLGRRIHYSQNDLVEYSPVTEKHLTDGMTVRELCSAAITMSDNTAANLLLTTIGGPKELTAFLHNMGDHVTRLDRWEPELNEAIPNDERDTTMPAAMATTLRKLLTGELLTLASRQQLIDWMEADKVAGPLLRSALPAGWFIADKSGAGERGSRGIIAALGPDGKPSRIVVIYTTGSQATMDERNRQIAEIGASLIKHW
T5 sequence (P05364 21-381): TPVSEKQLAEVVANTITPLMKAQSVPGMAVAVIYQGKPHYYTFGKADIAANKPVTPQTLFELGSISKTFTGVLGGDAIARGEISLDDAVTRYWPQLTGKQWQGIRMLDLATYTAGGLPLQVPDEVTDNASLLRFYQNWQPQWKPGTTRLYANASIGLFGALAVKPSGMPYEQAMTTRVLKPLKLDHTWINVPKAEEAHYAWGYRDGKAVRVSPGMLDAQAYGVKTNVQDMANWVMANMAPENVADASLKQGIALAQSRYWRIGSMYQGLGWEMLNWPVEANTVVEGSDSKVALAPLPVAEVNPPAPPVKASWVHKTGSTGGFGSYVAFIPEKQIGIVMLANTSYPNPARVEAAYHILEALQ
Sequence of AmpC P. aeruginosa (P24735 27-397): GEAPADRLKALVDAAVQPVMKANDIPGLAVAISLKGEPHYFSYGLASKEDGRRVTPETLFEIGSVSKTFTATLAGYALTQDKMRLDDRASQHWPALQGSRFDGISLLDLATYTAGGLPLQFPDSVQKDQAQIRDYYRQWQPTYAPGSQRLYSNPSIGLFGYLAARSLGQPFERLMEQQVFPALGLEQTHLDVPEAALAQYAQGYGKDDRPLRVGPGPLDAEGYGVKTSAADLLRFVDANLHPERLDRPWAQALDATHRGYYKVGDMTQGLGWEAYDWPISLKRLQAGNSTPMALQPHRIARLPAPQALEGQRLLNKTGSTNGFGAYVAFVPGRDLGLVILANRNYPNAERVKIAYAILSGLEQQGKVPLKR
T3 sequence (Q9EXV5 entry or part of it): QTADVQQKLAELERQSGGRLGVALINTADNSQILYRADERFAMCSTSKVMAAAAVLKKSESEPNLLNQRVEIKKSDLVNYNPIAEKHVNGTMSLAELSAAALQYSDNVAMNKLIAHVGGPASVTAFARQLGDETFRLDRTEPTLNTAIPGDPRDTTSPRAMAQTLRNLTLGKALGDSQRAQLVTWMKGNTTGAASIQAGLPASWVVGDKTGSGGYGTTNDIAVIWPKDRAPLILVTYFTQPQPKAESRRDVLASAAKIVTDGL
T6 sequence (Q06778 21-266): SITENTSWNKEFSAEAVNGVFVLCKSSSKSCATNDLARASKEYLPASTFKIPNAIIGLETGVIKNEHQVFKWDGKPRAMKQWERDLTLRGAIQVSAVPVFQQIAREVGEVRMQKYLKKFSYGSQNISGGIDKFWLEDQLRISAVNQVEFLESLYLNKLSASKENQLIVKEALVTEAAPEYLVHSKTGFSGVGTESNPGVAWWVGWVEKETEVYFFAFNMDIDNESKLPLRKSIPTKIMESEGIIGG
T2 sequence (P0AD64 22-286): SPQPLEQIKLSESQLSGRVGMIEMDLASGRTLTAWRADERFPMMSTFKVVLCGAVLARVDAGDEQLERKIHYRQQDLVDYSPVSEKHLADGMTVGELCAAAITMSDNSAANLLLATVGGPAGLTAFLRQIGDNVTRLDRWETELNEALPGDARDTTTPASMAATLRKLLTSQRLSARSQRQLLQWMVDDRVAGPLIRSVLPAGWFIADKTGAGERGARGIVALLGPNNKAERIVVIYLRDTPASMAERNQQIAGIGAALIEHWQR
T4 sequence (Q9F663 25-293 limits assumed): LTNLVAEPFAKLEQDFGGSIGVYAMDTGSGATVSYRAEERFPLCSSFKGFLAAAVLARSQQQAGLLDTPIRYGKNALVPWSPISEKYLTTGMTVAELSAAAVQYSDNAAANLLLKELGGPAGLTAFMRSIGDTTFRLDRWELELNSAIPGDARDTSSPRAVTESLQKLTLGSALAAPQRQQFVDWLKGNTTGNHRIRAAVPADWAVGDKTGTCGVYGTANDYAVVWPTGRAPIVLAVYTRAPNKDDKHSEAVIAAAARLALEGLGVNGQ
T8 sequence (Q6XEC0 23-265 limits assumed): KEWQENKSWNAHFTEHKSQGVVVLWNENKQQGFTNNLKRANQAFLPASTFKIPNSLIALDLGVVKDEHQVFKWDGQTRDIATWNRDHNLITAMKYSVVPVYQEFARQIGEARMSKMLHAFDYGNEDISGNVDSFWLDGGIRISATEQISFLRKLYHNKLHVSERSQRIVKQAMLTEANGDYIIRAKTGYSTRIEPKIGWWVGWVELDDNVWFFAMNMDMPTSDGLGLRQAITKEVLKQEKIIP

Structure (SMILES)	IC50 [1] [nM]	IC50 [2] [nM]	IC50 [3] [nM]	IC50 [4] [nM]	IC50 [5] [nM]	IC50 [6] [nM]	IC50 [7] [nM]	IC50 [8] [nM]	IC50 [9] [nM]	MIC [10] [µg/mL]	MIC [11] [µg/mL]	MIC of CAZ in combination with compound at 4 μg/mL [12] [µg/mL]	MIC of CAZ in combination with compound at 4 μg/mL [13] [µg/mL]	MIC [14] [µg/mL]	MIC of CAZ in combination with compound at 4 μg/mL [14] [µg/mL]	MIC [15] [µg/mL]	MIC of CAZ in combination with compound at 4 μg/mL [15] [µg/mL]	MIC of CAZ in combination with compound at 4 μg/mL [16] [µg/mL]	MIC [17] [µg/mL]	MIC of CAZ in combination with compound at 4 μg/mL [17] [µg/mL]	other results
Cn1c2c(sc1=O)C1CN(C2)C(=O)N1OS(=O)(=O)[O-].[Na+] (centres unmarked) [Example 1, Sodium (5-methyl-4,9-dioxo-3-thia-5,8,10-triaza-tricyclo[6.2.1.0^2.6]undec-2(6)-en-10-yl) sulfate]	3.3	12	0.69	3.3	48	190	40	250	0.89	16	> 32	<0.25	0.5	8	0.5	8	≤0.25	<0.25	8	2	MIC of CAZ in combination with compound at 4 μg/mL [10]: 64 µg/mL; MIC [18]: 16 µg/mL; MIC of CAZ in combination with compound at 4 μg/mL [18]: 4 µg/mL; MIC [19]: 2 µg/mL; MIC of CAZ in combination with compound at 4 μg/mL [19]: <0.25 µg/mL; MIC of CAZ in combination with compound at 4 μg/mL [20]: ≤0.125 µg/mL; MIC [21]: 8 µg/mL; MIC of CAZ in combination with compound at 4 μg/mL [21]: >128 µg/mL; MIC [22]: 32 µg/mL; MIC of CAZ in combination with compound at 4 μg/mL [22]: >128 µg/mL; MIC [23]: > 128 µg/mL; MIC of CAZ in combination with compound at 4 μg/mL [23]: 4 µg/mL
COC(=O)Cn1c2c(sc1=O)C1CN(C2)C(=O)N1OS(=O)(=O)[O-].[Na+] (centres unmarked) [Example 2, Sodium [5-(2-methoxy-2-oxo-ethyl)-4,9-dioxo-3-thia-5,8,10-triaza-tricyclo[6.2.1.0^2.6]undec-2(6)-en-10-yl] sulfate]	0.64	1.3	1.1	1.3	16	220	4.1	57	0.67	32	> 32	<0.25	8	16	4	4	0.25	1	8	16	MIC [12]: 8 µg/mL; MIC [13]: 16 µg/mL; MIC [16]: 8 µg/mL; MIC [18]: 8 µg/mL; MIC of CAZ in combination with compound at 4 μg/mL [18]: 4 µg/mL; MIC [19]: 1 µg/mL; MIC of CAZ in combination with compound at 4 μg/mL [19]: <0.25 µg/mL; MIC of CAZ in combination with compound at 4 μg/mL [20]: <0.25 µg/mL; MIC [21]: 8 µg/mL; MIC of CAZ in combination with compound at 4 μg/mL [21]: >128 µg/mL; MIC [22]: 16 µg/mL; MIC [23]: > 32 µg/mL; MIC of CAZ in combination with compound at 4 μg/mL [23]: 16 µg/mL
NCCn1c2c(sc1=O)C1CN(C2)C(=O)N1OS(=O)(=O)[O-].[Na+] (centres unmarked) [Example 4, Sodium and 2,2,2-trifluoroacetate [5-(2-azaniumethyl)-4,9-dioxo-3-thia-5,8,10-triaza-tricyclo[6.2.1.0^2.6]undec-2(6)-en-10-yl] sulfate]	4.6	21	1.3	7.4	140	1200	82	300	4.1	16	8	<0.25	≤0.25	0.5	<0.25	16	≤0.25	≤0.25	4	<0.25	MIC of CAZ in combination with compound at 4 μg/mL [10]: ≤0.125 µg/mL; MIC [12]: 4 µg/mL; MIC [16]: 16 µg/mL; MIC [18]: 32 µg/mL; MIC of CAZ in combination with compound at 4 μg/mL [18]: ≤0.125 µg/mL; MIC [19]: 8 µg/mL; MIC of CAZ in combination with compound at 4 μg/mL [19]: <0.25 µg/mL; MIC ([20]; Escherichia coli, read-out: MIC compounds of the invention alone): 1 µg/mL; MIC of CAZ in combination with compound at 4 μg/mL [20]: <0.25 µg/mL; MIC [21]: 0.5 µg/mL; MIC of CAZ in combination with compound at 4 μg/mL [21]: <0.25 µg/mL; MIC [22]: 4 µg/mL; MIC of CAZ in combination with compound at 4 μg/mL [22]: <0.25 µg/mL; MIC [23]: 16 µg/mL; MIC of CAZ in combination with compound at 4 μg/mL [23]: 4 µg/mL
O=C1N2Cc3c(sc(=O)n3CCO)C(C2)N1OS(=O)(=O)[O-].[Na+] (centres unmarked) [Example 5, Sodium [5-(2-hydroxyethyl)-4,9-dioxo-3-thia-5,8,10-triaza-tricyclo[6.2.1.0^2.6]undec-2(6)-en-10-yl) sulfate]	1.8	6	0.68	1.7	24	370	31	190	0.79	8	> 32	<0.25	<0.25	8	0.25	4	<0.25	<0.25	4	<0.25	MIC of CAZ in combination with compound at 4 μg/mL [10]: 4 µg/mL; MIC [13]: 8 µg/mL; MIC [16]: 4 µg/mL; MIC [18]: 8 µg/mL; MIC of CAZ in combination with compound at 4 μg/mL [18]: ≤0.125 µg/mL; MIC [19]: 1 µg/mL; MIC of CAZ in combination with compound at 4 μg/mL [19]: <0.25 µg/mL; MIC of CAZ in combination with compound at 4 μg/mL [20]: <0.25 µg/mL; MIC [21]: 2 µg/mL; MIC of CAZ in combination with compound at 4 μg/mL [21]: <0.25 µg/mL; MIC [22]: 8 µg/mL; MIC of CAZ in combination with compound at 4 μg/mL [22]: 64 µg/mL; MIC [23]: > 32 µg/mL; MIC of CAZ in combination with compound at 4 μg/mL [23]: 4 µg/mL
